From ChEMBL document CHEMBL3797052 (Eur J Med Chem, 2016)

How the values were obtained:
NCI-H460 = experiment: Antiproliferative activity against human NCI-H460 cells assessed as cell growth at 10^-4 M after 48 hrs by sulforhodamine B assay; format: functional; conditions: NCI-H460, 48 h, read-out: Activity
M14 = experiment: Antiproliferative activity against human M14 cells assessed as cell growth at 10^-7 M after 48 hrs by sulforhodamine B assay; format: functional; conditions: M14, 48 h, read-out: Activity
[1] = Antiproliferative activity against human HOP62 cells assessed as cell growth at 10^-8 M after 48 hrs by sulforhodamine B assay; format: functional; conditions: HOP-62, 48 h, read-out: Activity
[2] = Antiproliferative activity against human SNB19 cells assessed as growth inhibition after 48 hrs by sulforhodamine B assay; format: functional; conditions: SNB-19, 48 h
Malme-3M [3] = experiment: Antiproliferative activity against human MALME-3M cells assessed as cell growth at 10^-8 M after 48 hrs by sulforhodamine B assay; format: functional; conditions: read-out: Activity
A498 [4] = experiment: Antiproliferative activity against human A498 cells assessed as cell growth at 10^-6 M after 48 hrs by sulforhodamine B assay; format: functional; conditions: A498, 48 h, read-out: Activity
[5] = Antiproliferative activity against human SF268 cells assessed as cell growth at 10^-8 M after 48 hrs by sulforhodamine B assay; format: functional; conditions: SF-268, 48 h, read-out: Activity
[6] = Antiproliferative activity against human UO31 cells assessed as cell growth at 10^-8 M after 48 hrs by sulforhodamine B assay; format: functional; conditions: UO-31, 48 h, read-out: Activity
NCI-H322M = experiment: Antiproliferative activity against human NCI-H322M cells assessed as cell growth at 10^-4 M after 48 hrs by sulforhodamine B assay; format: functional; conditions: read-out: Activity
[7] = Antiproliferative activity against human OVCAR5 cells assessed as cell growth at 10^-8 M after 48 hrs by sulforhodamine B assay; format: functional; conditions: OVCAR-5, 48 h, read-out: Activity
[8] = Antiproliferative activity against human LOXIMVI cells assessed as cell growth at 10^-6 M after 48 hrs by sulforhodamine B assay; format: functional; conditions: LOX IMVI, read-out: Activity
[9] = biological target: RAF proto-oncogene serine/threonine-protein kinase (Homo sapiens, UniProt P04049); experiment: Inhibition of human CRAF at 10 uM measured after 40 mins by scintillation counting
A498 [10] = experiment: Antiproliferative activity against human A498 cells assessed as cell growth at 10^-8 M after 48 hrs by sulforhodamine B assay; format: functional; conditions: A498, 48 h, read-out: Activity
[11] = Antiproliferative activity against human OVCAR5 cells assessed as cell growth at 10^-6 M after 48 hrs by sulforhodamine B assay; format: functional; conditions: OVCAR-5, 48 h, read-out: Activity
Malme-3M [12] = experiment: Antiproliferative activity against human MALME-3M cells assessed as growth inhibition after 48 hrs by sulforhodamine B assay; format: functional
[13] = Antiproliferative activity against human NCI-ADR-RES cells assessed as cell growth at 10^-4 M after 48 hrs by sulforhodamine B assay; format: functional; conditions: read-out: Activity
NCI-H226 [14] = experiment: Antiproliferative activity against human NCI-H226 cells assessed as cell growth at 10^-7 M after 48 hrs by sulforhodamine B assay; format: functional; conditions: NCI-H226, 48 h, read-out: Activity
[15] = Antiproliferative activity against human SKOV3 cells assessed as cell growth at 10^-4 M after 48 hrs by sulforhodamine B assay; format: functional; conditions: SK-OV-3, 48 h, read-out: Activity
[16] = Antiproliferative activity against human SNB19 cells assessed as cell growth at 10^-6 M after 48 hrs by sulforhodamine B assay; format: functional; conditions: SNB-19, 48 h, read-out: Activity
MDA-MB-468 [17] = experiment: Antiproliferative activity against human MDA-MB-468 cells assessed as cell growth at […] after 48 hrs by sulforhodamine B assay; format: functional; conditions: MDA-MB-468, 48 h, read-out: Activity
SK-MEL-28 = experiment: Antiproliferative activity against human SK-MEL-28 cells assessed as cell growth at 10^-6 M after 48 hrs by sulforhodamine B assay; format: functional; conditions: SK-MEL-28, 48 h, read-out: Activity
[18] = Antiproliferative activity against human UACC62 cells assessed as cell growth at 10^-8 M after 48 hrs by sulforhodamine B assay; format: functional; conditions: UACC-62, 48 h, read-out: Activity
NCI-H226 [19] = experiment: Antiproliferative activity against human NCI-H226 cells assessed as cell growth at 10^-4 M after 48 hrs by sulforhodamine B assay; format: functional; conditions: NCI-H226, 48 h, read-out: Activity
[20] = Antiproliferative activity against human PC3 cells assessed as cell growth at 10^-4 M after 48 hrs by sulforhodamine B assay; format: functional; conditions: PC-3, 48 h, read-out: Activity
MDA-MB-231 = experiment: Antiproliferative activity against human MDA-MB-231 cells assessed as growth inhibition after 48 hrs by sulforhodamine B assay; format: functional; conditions: MDA-MB-231, 48 h
MDA-MB-468 [21] = experiment: Antiproliferative activity against human MDA-MB-468 cells assessed as cell growth at 10^-6 M after 48 hrs by sulforhodamine B assay; format: functional; conditions: MDA-MB-468, 48 h, read-out: Activity
[22] = Antiproliferative activity against human OVCAR4 cells assessed as cell growth at 10^-4 M after 48 hrs by sulforhodamine B assay; format: functional; conditions: OVCAR-4, 48 h, read-out: Activity
[23] = Antiproliferative activity against human SNB19 cells assessed as cell growth at 10^-8 M after 48 hrs by sulforhodamine B assay; format: functional; conditions: SNB-19, 48 h, read-out: Activity
ACHN = experiment: Antiproliferative activity against human ACHN cells assessed as cell growth at 10^-7 M after 48 hrs by sulforhodamine B assay; format: functional; conditions: read-out: Activity
A549 [24] = experiment: Antiproliferative activity against human A549/ATCC cells assessed as cell growth at […] after 48 hrs by sulforhodamine B assay; format: functional; conditions: A549, 48 h, read-out: Activity
[25] = system: Serine/threonine-protein kinase B-raf (Homo sapiens), P15056 [V600E]; experiment: Inhibition of BRAF V600E mutant (unknown origin) at 10 uM measured after 40 mins by scintillation counting
KM12 = experiment: Antiproliferative activity against human KM12 cells assessed as cell growth at 10^-7 M after 48 hrs by sulforhodamine B assay; format: functional; conditions: KM12, 48 h, read-out: Activity
[26] = Antiproliferative activity against human Hs 578T cells assessed as growth inhibition after 48 hrs by sulforhodamine B assay; format: functional
NCI-H23 = experiment: Antiproliferative activity against human NCI-H23 cells assessed as cell growth at 10^-7 M after 48 hrs by sulforhodamine B assay; format: functional; conditions: NCI-H23, 48 h, read-out: Activity
[27] = Antiproliferative activity against human SW620 cells assessed as cell growth at 10^-7 M after 48 hrs by sulforhodamine B assay; format: functional; conditions: SW-620, 48 h, read-out: Activity
A549 [28] = experiment: Antiproliferative activity against human A549/ATCC cells assessed as cell growth at 10^-8 M after 48 hrs by sulforhodamine B assay; format: functional; conditions: A549, 48 h, read-out: Activity
[29] = Antiproliferative activity against human RXF393 cells assessed as cell growth at 10^-8 M after 48 hrs by sulforhodamine B assay; format: functional; conditions: RXF 393, 48 h, read-out: Activity
[30] = read-out: LC50 (the source's name)

Sequence of RAF proto-oncogene serine/threonine-protein kinase (P04049 whole entry): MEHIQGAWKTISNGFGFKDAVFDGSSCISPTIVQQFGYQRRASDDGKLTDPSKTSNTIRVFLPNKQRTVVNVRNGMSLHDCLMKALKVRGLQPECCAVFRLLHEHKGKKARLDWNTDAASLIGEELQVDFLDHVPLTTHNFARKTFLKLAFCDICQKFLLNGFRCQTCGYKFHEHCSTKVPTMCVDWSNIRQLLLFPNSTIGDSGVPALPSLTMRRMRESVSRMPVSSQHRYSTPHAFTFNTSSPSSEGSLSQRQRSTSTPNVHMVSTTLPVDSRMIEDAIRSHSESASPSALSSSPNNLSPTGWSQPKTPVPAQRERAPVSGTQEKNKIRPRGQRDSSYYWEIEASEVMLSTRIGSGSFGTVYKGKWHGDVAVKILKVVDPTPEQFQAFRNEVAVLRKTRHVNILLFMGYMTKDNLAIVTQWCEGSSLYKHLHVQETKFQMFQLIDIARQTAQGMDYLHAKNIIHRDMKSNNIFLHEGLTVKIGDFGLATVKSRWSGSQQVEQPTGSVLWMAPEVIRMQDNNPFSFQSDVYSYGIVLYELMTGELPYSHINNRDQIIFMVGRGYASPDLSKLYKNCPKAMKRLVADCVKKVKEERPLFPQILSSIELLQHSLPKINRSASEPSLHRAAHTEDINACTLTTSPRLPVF
Sequence of Serine/threonine-protein kinase B-raf (Homo sapiens), P15056 [V600E] (P15056 whole entry V600E): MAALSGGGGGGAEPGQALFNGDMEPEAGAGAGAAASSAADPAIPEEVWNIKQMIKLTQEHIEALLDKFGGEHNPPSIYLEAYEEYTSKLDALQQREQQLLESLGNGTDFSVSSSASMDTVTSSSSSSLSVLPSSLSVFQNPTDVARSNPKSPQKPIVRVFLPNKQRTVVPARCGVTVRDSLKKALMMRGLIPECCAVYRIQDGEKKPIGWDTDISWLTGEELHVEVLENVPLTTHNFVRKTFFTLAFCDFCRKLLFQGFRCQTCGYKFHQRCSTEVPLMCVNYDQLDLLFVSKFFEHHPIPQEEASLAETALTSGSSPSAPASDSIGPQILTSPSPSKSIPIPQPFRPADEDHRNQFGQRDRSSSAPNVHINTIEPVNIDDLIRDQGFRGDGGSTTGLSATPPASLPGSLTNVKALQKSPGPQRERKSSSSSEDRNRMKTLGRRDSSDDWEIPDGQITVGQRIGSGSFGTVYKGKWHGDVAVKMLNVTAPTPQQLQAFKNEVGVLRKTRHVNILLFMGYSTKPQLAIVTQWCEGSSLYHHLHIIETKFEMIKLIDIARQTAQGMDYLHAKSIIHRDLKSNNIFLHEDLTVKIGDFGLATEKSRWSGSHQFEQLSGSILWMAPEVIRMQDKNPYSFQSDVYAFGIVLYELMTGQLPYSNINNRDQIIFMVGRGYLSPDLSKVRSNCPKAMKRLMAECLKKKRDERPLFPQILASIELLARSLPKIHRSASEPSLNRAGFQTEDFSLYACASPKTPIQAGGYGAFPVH

## CNC(=O)c1cc(Oc2ccc3nc(NC(=O)Nc4cc(C(F)(F)F)cc(C(F)(F)F)c4)sc3c2)ccn1
NCI-H460
  growth at 100 µM: -71%
M14
  growth at 0.1 µM: 104%
[1]
  growth at 0.01 µM: 85%
[2]
  GI50: 1.34 µM
  LC50 (50% lethal concentration): > 100 µM
  TGI: 4.43 µM
Malme-3M [3]
  growth at 0.01 µM: 96%
A498 [4]
  growth at 1 µM: 51%
[5]
  growth at 0.01 µM: 97%
[6]
  growth at 0.01 µM: 95%
NCI-H322M
  growth at 100 µM: -50%
[7]
  growth at 0.01 µM: 94%
[8]
  growth at 1 µM: 63%
[9]
  inhibition: 77%
A498 [10]
  growth at 0.01 µM: 100%
[11]
  growth at 1 µM: 77%
Malme-3M [12]
  GI50: 0.908 µM
  TGI: 2.49 µM
Malme-3M [12]; [30]
  CC50: 6.41 µM
[13]
  growth at 100 µM: -49%
NCI-H226 [14]
  growth at 0.1 µM: 87%
[15]
  growth at 100 µM: -84%
[16]
  growth at 1 µM: 62%
MDA-MB-468 [17]
  growth at 0.01 µM: 84%
SK-MEL-28
  growth at 1 µM: 66%
[18]
  growth at 0.01 µM: 93%
NCI-H226 [19]
  growth at 100 µM: -52%
[20]
  growth at 100 µM: -75%
MDA-MB-231
  GI50: 0.829 µM
  TGI: 2.62 µM
MDA-MB-231; [30]
  CC50: 7.5 µM
MDA-MB-468 [21]
  growth at 1 µM: 22%
[22]
  growth at 100 µM: -57%
[23]
  growth at 0.01 µM: 99%
ACHN
  growth at 0.1 µM: 99%
A549 [24]
  growth at 0.1 µM: 109%
[25]
  inhibition: 49.9%
KM12
  growth at 0.1 µM: 95%
[26]
  GI50: 1.65 µM
  TGI: 4.84 µM
[26]; [30]
  CC50: > 100 µM
NCI-H23
  growth at 0.1 µM: 95%
[27]
  growth at 0.1 µM: 113%
A549 [28]
  growth at 0.01 µM: 104%
[29]
  growth at 0.01 µM: 89%
